Experimental data reported in patent US6893821B2, “Agents that modulate DNA-PK activity and methods of use thereof” (The Regents of the University of California, priority 2000, dated 2005).
“Also recorded” adds a separate entry of the source.

Columns and labels:
[1] = tested on: IL-6, IL-12 message in liver; experiment: RT-PCR for IL-6 and IL-12 message in livers of mice injected i.v. with ODN; type: in vivo; conditions: mice i.v. 200 μl (1 μg/μl in PBS) of ss or ds ODN; 2.5 hours
IκB kinase (IKK) complex = experiment: IKK kinase assay on IKK complex immunoprecipitated from treated BMDM (IκBα N-terminus substrate); type: cell-based, mice
Description: (§1) Kinase assays and immunoblotting were performed according to Li et al. ((1999) J. Exp. Med. 189:1839-1845). Briefly, BMDM were treated with ISS-ODN (5 μg/ml), M-ODN (5 μg/ml) on ps and po backbones as indicated, LPS-free bacterial DNA or methylated bacterial DNA (5 μg/ml), LPS-free calf thymus DNA (5 μg/ml), LPS (10 μg/ml) or TNFα (10 ng/ml) for the indicated time periods. Cell lysates were prepared and normalized by immunoblotting (IB) with anti-IKKα polyclonal antibodies (Santa Cruz, Santa Cruz Biotech Inc., Calif.), anti-IKKβ polyclonal antbodies (Santa Cruz) or anti-DNA-PKcs monoclonal antibodies (NeoMarker, Calif.). IκB kinase (IKK) complex or DNA-PK complex from 100 μg of the lysates were immunoprecipitated by anti-IKKα or by anti-DNA-PKcs antibodies. The kinase activities (KA) were determined by a kinase assay using the N-terminus of IκBα (for IKK) or the N-terminus of p53 (for DNA-PK) as a substrate as previously described. Wang et al. (1992) Proc. Natl. Acad. Sci. USA 89:4231-4235; Li et al.(1999), supra; and Hammarsten et al. (2000) J. Biol. Chem. 275:1541-1545.

NF-κB = NF-κB activation in treated BMDM (EMSA); type: cell-based, mice
Description: (§2) The ODNs (ps-ss) used include an ISS-ODN with an active CpG motif (AACGTT), a methylated ISS-ODN at the ^5C of the CpG dinucleotide (AA*CGTT) and various control ODNs. These ODNs were incubated at concentrations of 0, 0.1, 0.3, or 1 ng/reaction. The po-ISS-ODN was incubated at concentration of 20, 50 or 100 ng/reaction. The po-ds-ISS-ODN was incubated at concentration of 0, 0.5, 1, 2, 5 or 10 ng/reaction. The bacterial or calf thymus DNAs were each incubated at concentration of 1, 2 or 5 ng/reaction. Electrophoretic gel mobility shift assay (EMSA) was performed as previously described. Chu et al. (1999) Immunity 11:721-731; and Li et al., 1999, supra). In vitro IKK kinase assays were performed using purified IKK derived from Sf9 insect cell lysates as was previously described. Zandi et al. (1998) Science 281:1360-1363.

DNA-PK [2] = target: T1, DNA-PK (Homo sapiens, UniProt P12956+P13010+P78527); experiment: In vitro DNA-PK phosphorylation assay (affinity-purified DNA-PK, GST-p53 (1-70) substrate); type: biochemical; conditions: 30° C., 30 minutes; ps-ss ODNs 0-1, po-ISS-ODN 20-100, po-ds-ISS-ODN 0-10, genomic DNAs 1-5 ng/reaction
T1 construct: purchased Promega
Description: The in vitro DNA-PK phosphorylation assay was performed according to Hammarsten et al. (2000), supra, with modification. Briefly, affinity-purified DNA-PK (Promega, Mo.) was incubated with various DNA preparations (described below), 0.5 μg of GST-p53 (1-70) and 3.3 μCi of γ-^32p-ATP in a 20 μl reaction buffer (10 mM Tris-Cl, 5 mM MgCl2, 0.3 mM EDTA and 10 μM ATP) at 30° C. for 30 minutes. The reaction was stopped by addition of 4× loading buffer. The samples were boiled, loaded on 9% SDS-PAGE, transferred onto a PVDF membrane and visualized by autoradiography.
as §2

DNA-PK [3] = target: T2, DNA-PK (Mus musculus, UniProt P23475+P27641+P97313); experiment: DNA-PK activity in treated BMDM by immune-complex kinase assay; type: cell-based, mice; conditions: wt BMDM
T2 construct: endogenous in cells; host or cells: mouse bone marrow-derived macrophages (BMDM)
Description: as §1
(§3) To further determine whether ISS-ODN, po-ISS-ODN or bacterial DNA activate DNA-PK in cells, we treated BMDM from either wt or DNA-PKcs-deficient mice with ISS-ODN, po-ISS-ODN, bacterial DNA or LPS as a control.

DNA-PK [4] = experiment: as above; type: cell-based, mice; conditions: DNA-PKcs-deficient BMDM
Description: as §1, §3

HSP70 = experiment: RT-PCR for induction of heat shock protein gene transcription in BMDM; type: cell-based, mouse
Description: A half million mouse BMDM isolated from BALB/c, IFNα receptor knockout, or IFNγ knockout mice were incubated with ISS-ODN or M-ODN at a final concentration of 10 μg/ml. After 0, 1, 2, 4, 6, and 8 hours, total RNA was prepared and analyzed by RT-PCR (reverse transcription-polymerase chain reaction) for induction of gene transcription of heat shock proteins. The sequences of the primers used is as follows: […]

[5] = IKKβ-/- Tnfr-/- BMDM (absence of IKKβ)

## 5′-TGACTGTGAACGTTCGAGATGA-3′ [ISS-ODN]
[1]
  IL-6 and IL-12 message in liver (RT-PCR): readily detected; also recorded: cytokine induction
IκB kinase (IKK) complex; ATM-deficient BMDM
  IKK activation, wt vs ATM-deficient BMDM: no differences were observed
IκB kinase (IKK) complex; DNA-PKcs-/- BMDM as compared to wt
  IKK activation: little increase in IKK activity
IκB kinase (IKK) complex; [5]
  IKK activation: prevented
IκB kinase (IKK) complex; wt BMDM
  IKK activation: robust IKK activation
  duration of IKK activation: about 4 hrs
  time of maximal IKK activation post incubation: 30 min
IκB kinase (IKK) complex; wt BMDM (FIG. 5B)
  ISS-ODN concentration of optimal IKK activation: 0.65 µg/mL
NF-κB; ATM-deficient BMDM
  NF-κB activation, wt vs ATM-deficient BMDM: no differences were observed
NF-κB; DNA-PKcs-/- BMDM
  NF-κB activation: impaired NF-κB activation
NF-κB; [5]
  NF-κB activation: prevented
DNA-PK [2]
  DNA-PK activity in vitro (phosphorylation of the N-terminal portion of p53): stimulated DNA-PK activity
DNA-PK [3]
  time of peak DNA-PK activity: 1 h
DNA-PK [3]; 30-minute incubation
  DNA-PK activity in cells: Considerable DNA-PK activity
DNA-PK [4]
  DNA-PK activity in cells: Little or no DNA-PK activity
HSP70; BMDM from IFN type 1 receptor knockout mice
  induction of HSP-70 gene transcription: did not result in induction of HSP-70
HSP70; BMDM, 10 μg/ml, 0-8 hours
  induction of inducible HSP-70 gene transcription: induces inducible HSP-70
